Measurements taken from patent US20110009343A1, “MODULATORS OF AMYLOID AGGREGATION” (Praecis Pharmaceuticals, Inc., priority 1995, published 2011).
Ends that are not written are not given here. Peptide text beside a SMILES is read from it. * marks the point of attachment. Cholyl = C[C@H](CCC(=O)*)[C@H]1CC[C@H]2[C@@H]3[C@H](O)C[C@@H]4C[C@H](O)CC[C@]4(C)[C@H]3C[C@H](O)[C@]12C; CA = not defined here

How the values were obtained:
cultured neuronal cells = test: Neurotoxicity of Aβ1-40 preparations with or without modulator (MTT), cell line not specified; assay type: cell-based; details: for delay of the appearance of neurotoxicity relative to control: compared with delay of polymerization in nucleation assay
Experimental: The neurotoxicity of natural β-amyloid peptide aggregates, in either the presence or absence of a β-amyloid modulator, is tested in a cell-based assay using either a rat or human neuronally-derived cell line (PC-12 cells or NT-2 cells, respectively) and the viability indicator 3,(4,4-dimethylthiazol-2-yl)2,5-diphenyl-tetrazolium bromide (MTT). […] MTT (commercially available from Sigma Chemical Co.) is a chromogenic substrate that is converted from yellow to blue in viable cells, which can be detected spectrophotometrically.
To test the neurotoxicity of natural β-amyloid peptides, stock solutions of fresh Aβ monomers and aged Aβ aggregates were first prepared. […] Peptide prepared in this way and tested immediately on cells is referred to as “fresh” Aβ monomer. To prepare “aged” Aβ aggregates, peptide solution was placed in a 1.5 ml Eppendorf tube and incubated at 37° C. for eight days to allow fibrils to form. Such “aged” Aβ peptide can be tested directly on cells or frozen at −80° C. The neurotoxicity of fresh monomers and aged aggregates were tested using PC12 and NT2 cells. PC 12 cells were routinely cultured in Dulbeco's modified Eagle's medium (DMEM) containing 10% horse serum, 5% fetal calf serum, 4 mM glutamine, and 1% gentamycin. NT2 cells were routinely cultured in OPTI-MEM medium (GIBCO BRL CAT. #31985) supplemented with 10% fetal calf serum, 2 mM glutamine and 1% gentamycin. Cells were plated at 10-15,000 cells per well in 90 μl of fresh medium in a 96-well tissue culture plate 3-4 hours prior to treatment. The fresh or aged Aβ peptide solutions (10 μL) were then diluted 1:10 directly into tissue culture medium so that the final concentration was in the range of 1-10 μM peptide. Cells are incubated in the presence of peptide without a change in media for 48 hours at 37° C. For the final three hours of exposure of the cells to the β-AP preparation, MTT was added to the media to a final concentration of 1 mg/ml and incubation was continued at 37° C. Following the two hour incubation with MTT, the media was removed and the cells were lysed in 100 μL isopropanol/0.4N HCl with agitation. An equal volume of PBS was added to each well and the plates were agitated for an additional 10 minutes. Absorbance of each well at 570 nm was measured using a microtiter plate reader to quantitate viable cells.

Aβ1-40 [1] = biological target: T1, Aβ1-40 (Homo sapiens, UniProt P05067); test: Nucleation assay (turbidity, A405 nm); assay type: biochemical; details: for ΔLag (ratio of lag time with test compound to lag time of control) / inhibition at 100 mol % / % Inucl'n (percent reduction in maximum observed turbidity): Table V; for ΔLag (ratio of lag time with test compound to lag time of control): 100 mole % inhibitor relative to Aβ1-40; for inhibition at 100 mol % / % Inucl'n (percent reduction in maximum observed turbidity): 100 mole % inhibitor; for inhibition at 100 mol %: read-out: % Inucl'n (percent reduction in maximum observed turbidity);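 for all read-outs here: synthetic Aβ monomer polymerization followed by turbidity in 96-well plates with continuous shaking, read every 15 minutes over 5 hours, compared against wells lacking test compound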
T1 construct: (β-AP1-40) was obtained commercially from Bachem (Torrance, Calif.); purchased Bachem (Torrance, Calif.)
T1 sequence (P05067 672-711): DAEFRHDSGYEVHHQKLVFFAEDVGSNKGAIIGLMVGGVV
Text: The nucleation assay is employed to determine the ability of test compounds to alter (e.g. inhibit) the early events in formation of β-AP fibers from monomeric β-AP. […] The time delay before polymerization of β-AP monomer can be quantified as well as the extent of formation of insoluble fiber by light scattering (turbidity). Polymerization reaches equilibrium when the maximum turbidity reaches a plateau. The turbidity of a solution of natural β-AP in the absence or presence of various concentrations of a β-amyloid modulator compound is determined by measuring the apparent absorbance of the solution at 405 nm (A405 nm) over time. The threshold of sensitivity for the measurement of turbidity is in the range of 15-20 μM β-AP. […] This assay can be performed using stirring or shaking to accelerate polymerization, thereby increasing the speed of the assay. Moreover the assay can be adapted to a 96-well plate format to screen multiple compounds.
HFIP-solubilized peptide is sonicated in a waterbath sonicator for 5 mM at highest setting, then evaporated to dryness under a stream of argon. The peptide film is resuspended in anhydrous dimethylsulfoxide (DMSO) at a concentration of 6.9 mg/ml (25× concentration), sonicated for 5 mM as before, then filtered through a 0.2 micron nylon syringe filter (VWR cat. No. 28196-050). Test compounds are dissolved in DMSO at a 100× concentration. […] Ten microliters of the mixture is then added to the bottom of a well of a Corning Costar ultra low binding 96-well plate (Corning Costar, Cambridge Mass.; cat. No. 2500). Ninety microliters of water is added to the well, the plate is shaken on a rotary shaken at a constant speed at room temperature for 30 seconds, an additional 100 μl of 2×PTL buffer (20 mM NaH2PO4, 300 mM NaCl, pH 7.4) is added to the well, the plate is reshaken for 30 seconds and a baseline (t=0) turbidity reading is taken by measuring the apparent absorbance at 405 nm using a Bio-Rad Model 450 Microplate Reader. The plate is then returned to the shaker and shaken continuously for 5 hours. Turbidity readings are taken at 15 minute intervals.
β-amyloid aggregation in the absence of any modulators results in enhanced turbidity of the natural β-AP solution (i.e., an increase in the apparent absorbance at 405 nm over time).
Accordingly a fold increase in lag time of 1.0 indicates no change in lag time, whereas numbers >1.0 indicate an increase in lag time. The “% inhibition of plateau”, which is a measure of the ability of the compound to decrease the total amount of aggregation, refers to the reduction of the final turbidity in the presence of the test compound expressed as a percent of the control without the test compound.

β-AP1-40 = biological target: T2, β-AP1-40 (Homo sapiens, UniProt P05067); test: Static aggregation assay (SDS-PAGE); assay type: biochemical
T2 construct: (β-AP1-40) was obtained commercially from Bachem (Torrance, Calif.); purchased Bachem (Torrance, Calif.)
T2 sequence (P05067 672-711): as above
Experimental: In a third assay, β-AP aggregation was measured by visualization of the peptide aggregates using SDS-polyacrylamide gel electrophoresis (SDS-PAGE). In this assay, β-AP solutions were allowed to aggregate over a period of time and then aliquots of the reaction were run on a standard SDS-PAGE gel. Typical solution conditions were 200 μM of β-AP1-40 in PBS at 37° C. for 8 days or 200 μM β-AP1-40 in 0.1 M sodium acetate at 37° C. for 3 days. The peptide aggregates were visualized by Coomassie blue staining of the gel or, for β-AP solutions that included a biotinylated β-AP modulator, by western blotting of a filter prepared from the gel with a streptavidin-peroxidase probe, followed by a standard peroxidase assay. The β-AP aggregates are identifiable as high molecular weight, low mobility bands on the gel, which are readily distinguishable from the low molecular weight, high mobility β-AP monomer or dimer bands.

natural β-AP (β-AP1-40) = biological target: T3, natural β-AP (β-AP1-40) (Homo sapiens, UniProt P05067); test: Optical density (turbidity, A400 nm) aggregation assay; assay type: biochemical
T3 construct: (β-AP1-40) was obtained commercially from Bachem (Torrance, Calif.); purchased Bachem (Torrance, Calif.)
T3 sequence (P05067 672-711): as above
Experimental: In one assay, β-AP aggregation was measured by determining the increase in turbidity of a solution of natural β-AP over time in the absence or presence of various concentrations of the modulator. Turbidity of the solution was quantitated by determining the optical density at 400 nm (A400 nm) of the solution over time.
The aggregation of natural β-AP in the absence of modulator was determined as follows. β-AP1-40 was dissolved in hexafluoro isopropanol (HFIP; Aldrich Chemical Co., Inc.) at 2 mg/ml. Aliquots of the HFIP solution (87 μl) were transferred to individual 10 mm×75 mm test tubes. A stream of argon gas was passed through each tube to evaporate the HFIP. To the resulting thin film of peptide, dimethylsulfoxide (DMSO; Aldrich Chemical Co., Inc.) (25 μl) was added to dissolve the peptide. A 2 mm×7 mm teflon-coated magnetic stir bar was added to each tube. Buffer (475 μL of 100 mM NaCl, 10 mM sodium phosphate, pH 7.4) was added to the DMSO solution with stiffing. The resulting mixture was stirred continuously and the optical density was monitored at 400 nm to observe the formation of insoluble peptide aggregates.
Alternatively, β-AP1-40 was dissolved in DMSO as described above at 1.6 mM (6.9 mg/ml) and aliquots (25 μl) were added to stirred buffer (475 μl), followed by monitoring of absorbance at 400 nm […]

Aβ(1-40) peptide [2] = biological target: T4, Aβ(1-40) peptide (Homo sapiens, UniProt P05067); test: Seeded static assay (SSA), Thioflavin-T fluorescence; assay type: biochemical; details: inhibitor tested at 100 μM and 10 μM
T4 construct: (β-AP1-40) was obtained commercially from Bachem (Torrance, Calif.); purchased Bachem (Torrance, Calif.)
T4 sequence (P05067 672-711): as above
Experimental: The peptide was dissolved in 1/25 volume of dimethysulfoxide (DMSO), followed by water to 1/2 volume and 1/2 volume 2×PBS (10×PBS: NaCl 137 mM, KCl 2.7 mM Na2HPO4.7H2O 4.3 mM, KH2PO4 1.4 mM pH 7.2) to a final concentration of 200 μM.
To prepare a stock seed, 1 ml of the above Aβ monomer preparation, was incubated for 8 days at 37° C. and sheared sequentially through an 18, 23, 26 and 30 gauge needle 25, 25, 50, and 100 times respectively. 2 μl samples of the sheared material was taken for fluorescence measurements after every 50 passes through the 30 gauge needle until the fluorescence units (FU) had plateaued (approx. 100-150×).
To prepare a candidate inhibitor, the required amount of candidate inhibitor was weighed out and the stock dissolved in 1×PBS to a final concentration of 1 mM (10× stock). If insoluble, it was dissolved in 1/10 volume of DMSO and diluted in 1×PBS to 1 mM. […]
For the aggregation assay, each sample was set up in triplicate [50 μl of 200 μM monomer, 125 FU sheared seed (variable quantity dependent on the batch of seed, routinely 3-6 μl), 10 μl of 10× inhibitor solution, final volume made up to 100 μl with 1×PBS]. […] The assay was incubated at 37° C. for 6 h, taking 2 μl samples hourly for fluorescence measurements. To measure fluorescence, a 2 μl sample of Aβ was added to 400 μl of Thioflavin-T solution (50 mM Potassium Phosphate 10 mM Thioflavin-T pH 7.5).

Aβ1-40 [3] = biological target: T1, Aβ1-40; test: Seeded extension assay (thioflavin T fluorescence); assay type: biochemical; details: Table V; 25 mole % inhibitor
Experimental: The seeded extension assay can be employed to measure the rate of Aβ fiber formed in a solution of Aβ monomer following addition of polymeric Aβ fiber “seed”. The ability of test compounds to prevent further deposition of monomeric Aβ to previously deposited amyloid is determined using a direct indicator of β-sheet formation using fluorescence. In contrast with the nucleation assay, the addition of seed provides immediate nucleation and continued growth of preformed fibrils without the need for continuous mixing, and thus results in the absence of a lag time before polymerization starts. Since this assay uses static polymerization conditions, the activity of positive compounds in the nucleation assay can be confirmed in this second assay under different conditions and with an additional probe of amyloid structure.
In the seeded extension assay, monomeric Aβ140 is incubated in the presence of a “seed” nucleus (approximately ten mole percent of Aβ that has been previously allowed to polymerize under controlled static conditions). Samples of the solution are then diluted in thioflavin T (Th-T). The polymer-specific association of Th-T with Aβ produces a fluorescent complex that allows the measurement of the extent of fibril formation (Levine, H. (1993) Protein Science 2:404-410). In particular, association of Th-T with aggregated β-AP, but not monomeric or loosely associated β-AP, gives rise to a new excitation (ex) maximum at 450 nm and an enhanced emission (em) at 482 nm, compared to the 385 nm (ex) and 445 nm (em) for the free dye. Small aliquots of the polymerization mixture contain sufficient fibril to be mixed with Th-T to allow the monitoring of the reaction mixture by repeated sampling. A linear growth curve is observed in the presence of excess monomer. The formation of thioflavin T responsive β-sheet fibrils parallels the increase in turbidity observed using the nucleation assay.
To prepare the stock seed, 1 ml of the Aβ monomer preparation, is incubated for approximately 8 days at 37° C. and sheared sequentially through an 18, 23, 26 and 30 gauge needle 25, 25, 50, and 100 times respectively. 2 μl samples of the sheared material is taken for fluorescence measurements after every 50 passes through the 30 gauge needle until the fluorescence units (FU) plateau (approx. 100-150×). Test compounds are prepared by dissolving an appropriate amount of test compound in 1×PBS to a final concentration of 1 mM (10× stock). If insoluble, the compound is dissolved in 1/10 volume of DMSO and diluted in 1×PBS to 1 mM. A further 1/10 dilution is also prepared to test each candidate at both 100 μM and 10 μM.
To perform the seeded extension assay, each sample is set up with 50 μl of 200 μM monomer, 125 FU sheared seed (a variable quantity dependent on the batch of seed, routinely 3-6 μl) and 10 μl of 10× modulator solution. The sample volume is then adjusted to a final volume of 100 μl with 1×PBS. Two concentrations of each modulator typically are tested: 100 μM and 10 μM, equivalent to a 1:1 and a 1:10 molar ratio of monomer to modulator. The controls include an unseeded reaction to confirm that the fresh monomer contains no seed, and a seeded reaction in the absence of any modulators, as a reference to compare against candidate modulators. The assay is incubated at 37° C. for 6 h, taking 2 μl samples hourly for fluorescence measurements. To measure fluorescence, a 2 μl sample of Aβ is added to 400 μl of Thioflavin-T solution (50 mM Potassium Phosphate […] pH 7.5). The samples are vortexed and the fluorescence is read in a 0.5 ml micro quartz cuvette at EX 450 nm and EM 482 nm (Hitachi 4500 Fluorimeter).

Aβ(1-40) peptide [4] = biological target: T4, Aβ(1-40) peptide; test: Shaken plate aggregation assay (absorbance 405 nm); assay type: biochemical; details: % conc relative to Aβ(1-40) as printed in cell
Experimental: HFIP solubilized peptide was sonicated in a waterbath sonicator for 5 mM at highest setting, then evaporated to dryness under a stream of argon. The peptide film was resuspended in anhydrous dimethylsulfoxide (DMSO) at a concentration of 6.9 mg/ml, sonicated for 5 mM as before, then filtered through a 0.2 micron nylon syringe filter (VWR cat. No. 28196-050).
Candidates were assayed in triplicate. […] Into an ultra low binding 96 well plate (Corning Costar cat. No. 2500, Cambridge Mass.) 100 rtl PTL buffer (150 mM NaCl, 10 mM NaH2PO4; pH 7.4) was aliquotted per well. For each candidate, 10 μl of peptide mixture in DMSO was aliquotted into each of three wells containing buffer. The covered plate was vigorously vortexed on a plate shaker at high speed for 30 seconds. An additional 100 μl of PTL buffer was added to each well and again the plate was vortexed vigorously for 30 sec. Absorbance at 405 nm was immediately read in a plate reader for a baseline reading. The plate was returned to the plate shaker and vortexed at moderate speed for 5 hours at room temperature, with absorbance readings taken at 15-20 mM intervals. Increased absorbance indicated aggregation.

CC(C)C[C@H](NC(=O)[C@H](CCCCN)NC(=O)CC[C@@H](C)[C@H]1CC[C@H]2[C@@H]3[C@H](O)C[C@@H]4C[C@H](O)CC[C@]4(C)[C@H]3C[C@H](O)[C@]12C)C(=O)N[C@H](C(=O)N[C@@H](Cc1ccccc1)C(=O)N[C@@H](Cc1ccccc1)C(N)=O)C(C)C [PPI-319, cholyl-Aβ16-20-amide]
delay of the appearance of neurotoxicity relative to control (cultured neuronal cells): coincided with the delay in the time at which polymerization of Aβ began
Fold Increase in Lag Time (Aβ1-40 [1]; Table IV, 10 mole %): 2.7 fold
Fold Increase in Lag Time (Aβ1-40 [1]; Table IV, 33 mole %): 5.6 fold
ΔLag (ratio of lag time with test compound to lag time of control) (Aβ1-40 [1]): 5.4
inhibition at 100 mol % (Aβ1-40 [1]): 70%

N-biotinyl-βAP1-40
modulator self-aggregation (high molecular weight aggregates on gel) (β-AP1-40; N-biotinyl peptide alone, no natural β-AP): few if any high molecular weight aggregates were observed
aggregation of mixture with natural β-AP1-40 (high molecular weight aggregates on gel) (β-AP1-40; mixture of natural β-AP1-40 and modulator): reduced amounts of the peptide mixture associated into high molecular weight aggregates
aggregation of natural β-AP1-40 (turbidity: lag time, slope, plateau) (natural β-AP (β-AP1-40); modulator at 1% in natural β-AP1-40 solution): markedly inhibited
aggregation of natural β-AP1-40 (turbidity) (natural β-AP (β-AP1-40); modulator at 5% in natural β-AP1-40 solution): similarly inhibited aggregation

PPI-426: CA-FFVLA-oh, rearranged Aβ17-21
delay of the appearance of neurotoxicity relative to control (cultured neuronal cells): coincided with the delay in the time at which polymerization of Aβ began

CC(C)C[C@H](NC(=O)CC[C@@H](C)[C@H]1CC[C@H]2[C@@H]3[C@H](O)C[C@@H]4C[C@H](O)CC[C@]4(C)[C@H]3C[C@H](O)[C@]12C)C(=O)N[C@H](C(=O)N[C@@H](Cc1ccccc1)C(=O)N[C@@H](Cc1ccccc1)C(=O)N[C@@H](C)C(=O)O)C(C)C [PPI-368, cholyl-Aβ17-21]
delay of the appearance of neurotoxicity relative to control (cultured neuronal cells): coincided with the delay in the time at which polymerization of Aβ began
Fold Increase in Lag Time (Aβ1-40 [1]; Table IV, 100 mole %): >5.0 fold
ΔLag (ratio of lag time with test compound to lag time of control) (Aβ1-40 [1]): >5
inhibition at 100 mol % (Aβ1-40 [1]): 100%

Candidate Inhibitor 233: Aβ6-20 modified with acetic acid (HDSGYEVHHQKLVFF; also: modified with acetic acid; UniProt P05067 677-691, looked up, fragment)
Effect in Seeded Static Assay (Aβ(1-40) peptide [2]): ++ (A strong inhibitor of aggregation. The rate of aggregation in the presence of the inhibitor was decreased compared to the control by at least 30-50%)

CC(C)C[C@H](NC(=O)[C@H](CCCCN)NC(=O)[C@H](CCC(N)=O)NC(=O)[C@H](Cc1c[nH]cn1)NC(=O)[C@H](Cc1c[nH]cn1)NC(=O)[C@@H](NC(=O)[C@H](CCC(=O)O)NC(=O)[C@H](Cc1ccc(O)cc1)NC(=O)CNC(=O)[C@H](CO)NC(=O)[C@H](CC(=O)O)NC(=O)[C@H](Cc1c[nH]cn1)NC(=O)CC[C@@H](C)[C@H]1CC[C@H]2[C@@H]3[C@H](O)C[C@@H]4C[C@H](O)CC[C@]4(C)[C@H]3C[C@H](O)[C@]12C)C(C)C)C(=O)N[C@H](C(=O)N[C@@H](Cc1ccccc1)C(=O)N[C@@H](Cc1ccccc1)C(=O)O)C(C)C [PPI-264, cholyl-Aβ6-20] (Cholyl-HDSGYEVHHQKLVFF-OH)
neurotoxicity of Aβ1-40 solution preincubated with modulator (cultured neuronal cells; modulator preincubated with Aβ1-40 monomers, applied to cells 48 hours, MTT): inhibits the neurotoxicity of the Aβ1-40 solution
Fold Increase in Lag Time (Aβ1-40 [1]; Table II, 100 mole % vs 50 μM Aβ1-40): >4.5 fold
Fold Increase in Lag Time (Aβ1-40 [1]; Table III, 10 mole %): 2 fold
Fold Increase in Lag Time (Aβ1-40 [1]; Table III, 100 mole %): >4.5 fold
Fold Increase in Lag Time (Aβ1-40 [1]; Table IV, 10 mole %): 2.0 fold
aggregation of Aβ1-40 (turbidity) (Aβ1-40 [1]; equimolar: Aβ1-40 and modulator both 64 μM, FIG. 4 panel A): effective at inhibiting aggregation of Aβ140

CC(C)C[C@H](NC(=O)[C@H](CCCCN)NC(=O)CC[C@@H](C)[C@H]1CC[C@H]2[C@@H]3[C@H](O)C[C@@H]4C[C@H](O)CC[C@]4(C)[C@H]3C[C@H](O)[C@]12C)C(=O)N[C@H](C(=O)N[C@@H](Cc1ccccc1)C(=O)N[C@@H](Cc1ccccc1)C(=O)O)C(C)C [PPI-350, cholyl-Aβ16-20]
delay of the appearance of neurotoxicity relative to control (cultured neuronal cells): coincided with the delay in the time at which polymerization of Aβ began
Fold Increase in Lag Time (Aβ1-40 [1]; Table III, 38 mole %): 3.4 fold
Fold Increase in Lag Time (Aβ1-40 [1]; Table IV, 10 mole %): 2.4 fold
Fold Increase in Lag Time (Aβ1-40 [1]; Table IV, 100 mole %): >5.0 fold
ΔLag (ratio of lag time with test compound to lag time of control) (Aβ1-40 [1]): 1.8
inhibition at 100 mol % (Aβ1-40 [1]): 72%

PPI-430: CA-FFVL-oh ({CA}-FFVL-OH; reading uncertain; also: printed as PPI-430: CA-FFVL-oh)
% Iext'n (percent reduction of thioflavin-T fluorescence) (Aβ1-40 [3]): 75%
% Inucl'n (percent reduction in maximum observed turbidity) (Aβ1-40 [1]): 33%
ΔLag (ratio of lag time with test compound to lag time of control) (Aβ1-40 [1]): 4.1

Candidate Inhibitor 224: Aβ1-40 mutant F19F20->T19T20
Effect in shaken plate assay (Aβ(1-40) peptide [4]): Increased lag
Effect in Seeded Static Assay (Aβ(1-40) peptide [2]): ++ (A strong inhibitor of aggregation. The rate of aggregation in the presence of the inhibitor was decreased compared to the control by at least 30-50%)

CC(C)C[C@H](NC(=O)[C@H](CCCCN)NC(=O)[C@H](CCC(N)=O)NC(=O)CC[C@@H](C)[C@H]1CC[C@H]2[C@@H]3[C@H](O)C[C@@H]4C[C@H](O)CC[C@]4(C)[C@H]3C[C@H](O)[C@]12C)C(=O)N[C@H](C(=O)N[C@@H](Cc1ccccc1)C(=O)N[C@@H](Cc1ccccc1)C(=O)O)C(C)C [PPI-349, cholyl-Aβ15-20]
delay of the appearance of neurotoxicity relative to control (cultured neuronal cells): coincided with the delay in the time at which polymerization of Aβ began
Fold Increase in Lag Time (Aβ1-40 [1]; Table III, 33 mole %): 2.3 fold
Fold Increase in Lag Time (Aβ1-40 [1]; Table IV, 10 mole %): 2.1 fold
Fold Increase in Lag Time (Aβ1-40 [1]; Table IV, 33 mole %): 2.6 fold
Fold Increase in Lag Time (Aβ1-40 [1]; Table IV, 100 mole %): >5.0 fold
ΔLag (ratio of lag time with test compound to lag time of control) (Aβ1-40 [1]): >5
inhibition at 100 mol % (Aβ1-40 [1]): 100%

CC(C)C[C@H](N)C(=O)N[C@H](C(=O)N[C@@H](Cc1ccccc1)C(=O)N[C@@H](Cc1ccccc1)C(=O)N[C@@H](C)C(N)=O)C(C)C [PPI-405]
% Iext'n (percent reduction of thioflavin-T fluorescence) (Aβ1-40 [3]): 70%
% Inucl'n (percent reduction in maximum observed turbidity) (Aβ1-40 [1]): 11%
ΔLag (ratio of lag time with test compound to lag time of control) (Aβ1-40 [1]): 1.3
